In ChEMBL document CHEMBL4393702, “Structure-activity relationship and synthetic methodologies of α-santonin derivatives with diverse bioactivities: A mini-review” (Eur J Med Chem, 2019) one finds EC50, GI50 and IC50 data, which are given here for 13 molecules.

The target of test [1] is T1, Peroxisome proliferator-activated receptor gamma (Homo sapiens, UniProt P37231).
T1 sequence (P37231 whole entry): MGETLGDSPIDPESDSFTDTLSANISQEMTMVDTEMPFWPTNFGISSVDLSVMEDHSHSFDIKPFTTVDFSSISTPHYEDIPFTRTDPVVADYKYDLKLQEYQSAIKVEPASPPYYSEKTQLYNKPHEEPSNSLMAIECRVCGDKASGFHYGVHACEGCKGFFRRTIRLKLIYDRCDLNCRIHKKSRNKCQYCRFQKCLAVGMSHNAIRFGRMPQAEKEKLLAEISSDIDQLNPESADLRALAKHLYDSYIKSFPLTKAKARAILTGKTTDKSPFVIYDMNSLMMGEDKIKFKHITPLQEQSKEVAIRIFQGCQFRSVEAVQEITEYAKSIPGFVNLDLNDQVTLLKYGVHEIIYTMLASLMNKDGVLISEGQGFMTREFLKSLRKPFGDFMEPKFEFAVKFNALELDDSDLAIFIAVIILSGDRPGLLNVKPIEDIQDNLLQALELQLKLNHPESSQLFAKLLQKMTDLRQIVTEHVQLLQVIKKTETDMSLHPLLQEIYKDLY
Kind of test: Agonist activity at GAL4- fused PPARgamma LBD (unknown origin) expressed in African green monkey COS7 cells by luciferase reporter gene assay. The test is classed as cell-based. A general note: Reporter assays use an easily measured gene product as a stand-in for the process of interest.

The subject of test [2] is Melanoma cell line. Kind of test: Growth inhibition of human Melanoma cells after 48 hrs by MTT assay. It counts as functional.
The nature of test [3]: Growth inhibition of human Caov cells after 48 hrs by MTT assay. The test is classed as functional. (Formazan colour is commonly taken as a measure of viable cells.)
For test [4], the system named is P388. In words: Cytotoxicity against mouse P388 cells assessed as reduction in cell viability incubated for 72 hrs by MTT assay. It counts as functional, cell-based. Particulars: P388, 72 h.
Test [5] relates to HONE1 cell line. In words: Cytotoxicity against human HONE1 cells assessed as reduction in cell viability incubated for 72 hrs by MTT assay. It counts as functional, cell-based. Particulars: HONE1, 72 h.
Test [6] relates to HT-29. Kind of test: Cytotoxicity against human HT-29 cells assessed as reduction in cell viability incubated for 72 hrs by MTT assay. Particulars: HT-29, 72 h. The test is classed as functional, cell-based.
Test [7] concerns the target T2, Polyunsaturated fatty acid 5-lipoxygenase (Homo sapiens, UniProt P09917).
T2 sequence (P09917 whole entry): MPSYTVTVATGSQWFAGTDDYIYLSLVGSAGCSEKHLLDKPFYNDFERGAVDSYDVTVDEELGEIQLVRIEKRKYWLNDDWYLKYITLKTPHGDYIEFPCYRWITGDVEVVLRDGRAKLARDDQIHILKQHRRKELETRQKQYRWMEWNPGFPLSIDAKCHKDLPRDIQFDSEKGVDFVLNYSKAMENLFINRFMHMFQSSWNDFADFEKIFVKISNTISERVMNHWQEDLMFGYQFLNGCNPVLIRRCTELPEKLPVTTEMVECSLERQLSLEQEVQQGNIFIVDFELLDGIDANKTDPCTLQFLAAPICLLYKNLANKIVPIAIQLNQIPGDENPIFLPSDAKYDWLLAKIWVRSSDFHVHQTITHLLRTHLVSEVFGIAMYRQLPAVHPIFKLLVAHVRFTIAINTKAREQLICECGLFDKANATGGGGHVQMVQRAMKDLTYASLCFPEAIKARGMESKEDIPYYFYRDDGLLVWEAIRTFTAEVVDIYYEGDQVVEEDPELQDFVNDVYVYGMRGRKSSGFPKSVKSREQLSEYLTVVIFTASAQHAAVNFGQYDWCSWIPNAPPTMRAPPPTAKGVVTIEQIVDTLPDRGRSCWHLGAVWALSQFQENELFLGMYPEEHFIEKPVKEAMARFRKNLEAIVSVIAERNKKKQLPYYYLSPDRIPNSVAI
In words: Inhibition of 5-LOX (unknown origin).

For test [8], the target named is T2, Polyunsaturated fatty acid 5-lipoxygenase. In words: Inhibition of 5-LOX in polymorphonuclear leucocytes (unknown origin). It counts as cell-based.
In test [9] the test system is Trypanosoma brucei brucei. Kind of test: Antitrypanosomal activity against Trypanosoma brucei brucei GUTat 3.1 after 72 hrs by Alamar Blue assay. The test is classed as functional, organism-based. Particulars: GUTat 3.1, 72 h.
Test [10] in a line: Cytotoxicity against human […] cells assessed as reduction in cell viability after 72 hrs by Alamar Blue assay. The test is classed as functional, cell-based. (The colour change of resazurin is a common sign of viable cells or microbes.)
Test [11] can be described thus: Anticancer activity against human IMR13 cells assessed as reduction in cell viability incubated for 1 hr by SRB assay. The test is classed as functional, cell-based.
Test [12] deals with A549. In words: Anticancer activity against human A549 cells assessed as reduction in cell viability incubated for 1 hr by SRB assay. It counts as functional, cell-based. Particulars: A549, 1 h.
Test [13] deals with THP-1. Kind of test: Anticancer activity against human THP1 cells assessed as reduction in cell viability incubated for 1 hr by SRB assay. Particulars: THP-1, 1 h. The test is classed as functional, cell-based.
Test [14] relates to HCT-116. Kind of test: Anticancer activity against human HCT116 cells assessed as reduction in cell viability incubated for 1 hr by SRB assay. The test is classed as functional, cell-based. Particulars: HCT-116, 1 h.

Values after ≈ are worked out from the molar mass of the structure shown.

As to `CCCOc1cc(C)c2c(c1C)C[C@H]([C@H](C)C(=O)O)CC2`, in test [1], a half-maximal effect (EC50) was put at 15 µM.
As for `CC1=C2[C@H]3OC(=O)[C@@H](CN4CCCC(C)(C)C4)[C@@H]3CC[C@@]2(C)C=CC1=O`, the GI50 (as a rule, the concentration that inhibits growth by half) worked out at 3 µM in [2] and 2 µM in test [3].
The like results for `COc1ccc(N2CCN(C[C@@H]3C(=O)O[C@@H]4C5=C(C)C(=O)C=C[C@]5(C)CC[C@@H]34)CC2)cc1` were, in that order, 3 µM and 3 µM.
On to `C[C@@H]1C(=O)O[C@H]2C3=CC(=O)C[C@@H](O)[C@]3(C)CC[C@@H]12`, for which the IC50 in test [4], in test [5] and in [6] was 3.1 to 6.9 µM each time.
Take `CCCN(CCC)C[C@@H]1C(=O)O[C@@H]2C3=C(C)C(=O)C=C[C@]3(C)CC[C@@H]12`: the GI50 in test [2] came out at 4 µM; in test [3], 2 µM.
Consider `CCCOc1cc(C)c2c(c1C)C[C@H]([C@@H](C)C(=O)Nc1nccs1)CC2`, for which the half-maximal inhibitory concentration (IC50) (commonly the concentration that inhibits the measured activity by half) in test [7] is 1 µM; in [8], 0.8 µM.
The corresponding values for `CCCOc1cc(C)c2c(c1C)C[C@H]([C@@H](C)C(=O)NCc1cccs1)CC2` are 3 µM and 8 µM.
Regarding `CC1=C2[C@H]3OC(=O)[C@@H](CN4CCN(Cc5ccc6c(c5)OCO6)CC4)[C@@H]3CC[C@@]2(C)C=CC1=O`, the GI50 in test [2] turned out to be 2 µM; in [3], 4 µM.
`CC1=C2[C@H]3OC(=O)[C@@H](CN4CCOCC4)[C@@H]3CC[C@@]2(C)C=CC1=O`: the results for the concentration for 50% growth inhibition (GI50) in [2] and in [3] were 3 µM and 4 µM, respectively.
As to `CCCOc1cc(C)c2c(c1C)C[C@H]([C@@H](C)C(=O)Nc1ncc(C)s1)CC2`, the IC50 in [7] was 0.8 µM; in test [8], 1 µM.
Take `C[C@@H]1C(=O)O[C@H]2[C@H]1CC[C@@]1(C)CCC(=O)[C@](C)(OO)[C@@H]21`: the EC50 (in general, the midpoint of the concentration-response curve) in [9] is 0.4 µg/mL (≈ 1.42 µM); in [10], 64.2 µg/mL (≈ 227 µM).
With `CCCOc1cc(C)c2c(c1C)C[C@H]([C@@H](C)C(=O)Nc1ccccn1)CC2`, the IC50 in test [7] came to 6 µM; in [8], 0.9 µM.
As for `CC1=C2C(=O)[C@H]([C@@H](C)C(=O)OCc3ccccc3)CC[C@@]2(C)C=CC1Cc1ccccc1` (stereo partly drawn), the IC50 in test [11] was found to be 0.23 µM; in test [12], 0.3 µM; in test [13], 0.51 µM; in test [14], 0.6 µM.
